Assay results published in US20090030017A1, “THERAPEUTIC AGENT FOR DYSKINESIA” (Eisai R & D Management Co., Ltd, priority 2005, published 2009).
Like-named read-outs stand apart in the source and are kept apart here.

What was measured:
dyskinesia [1] = details: rhesus monkey models; cited from earlier work
dyskinesia [2] = details: cited from earlier work
[3] = tested on: L-DOPA induced dyskinesia; assay: L-DOPA induced dyskinesia model in monkey (MPTP-treated, L-DOPA methylester and benserazide); assay type: in vivo, crab-eating macaques; details: substance administered 20 minutes before L-DOPA methylester and benserazide, scored every 30 minutes for 5 hours
Description: To male crab-eating macaques, MPTP (1-methyl-4-phenyl-1,2,3,6-tetrahydropyridine) was frequently administered intravenously or subcutaneously in a dose of 0.2 to 1 mg/kg to cause Parkinson's disease.
In order to check the effect of the substance to be tested, i.e., 3-(2-cyanophenyl)-5-(2-pyridyl)-1-phenyl-1,2-dihydropyridine-2-on, the administration dose of L-DOPA methylester was adjusted to control the severity of the dyskinesia to a certain state.
The behavior before the administration of drugs (L-DOPA methylester and benserazide) was recorded, and then the substance to be tested was administered. 20 minutes after that, L-DOPA methylester and benserazide were administered.
The severity of the symptoms of Parkinson's disease was evaluated based on the items shown in Table 1 in a blinded manner, and shown as the total score.
The dyskinesia induced by the side effects of the administration of L-DOPA methylester and benserazide was evaluated based on the items shown in Table 2 in a blinded manner. […]
The symptoms were evaluated in a time-series manner before the administration of the drugs, and every 30 minutes after the administration of the drugs, for a total of 5 hours. The effect of the substance to be tested was determined as follows. […]

dyskinesia [4] = details: cited from earlier work; remark: listed apart in the source

CCN(CC)Cc1cccc(C=Cc2nc3ccc(F)cc3c(=O)n2-c2ccccc2Cl)n1 [3-(2-chlorophenyl)-2-[2-(6-diethylaminomethylpyridine-2-yl)-vinyl]-6-fluoro-3H-quinazoline-4-on]
effect on dyskinesia (dyskinesia [1]): has an effect on dyskinesia

CC1(C)O[C@@H]2[C@@H](CO[C@@]3(COS(N)(=O)=O)OC(C)(C)O[C@@H]23)O1 [Topiramate]
effect on the symptoms of Parkinson's disease (dyskinesia [2]; in vivo): shows a tendency of deteriorating the symptoms of Parkinson's disease, although not significantly | effect on dyskinesia (dyskinesia [2]; marmoset models): has an action of suppressing dyskinesia

N#Cc1ccccc1-c1cc(-c2ccccn2)cn(-c2ccccc2)c1=O [3-(2-cyanophenyl)-5-(2-pyridyl)-1-phenyl-1,2-dihydropyridine-2-on]
effect on dyskinesia (dyskinesia score, severity of dyskinesia) ([3]; FIG. 1, significant vs solvent P<0.01): provided an dyskinesia suppressing action | effect on the symptoms of Parkinson's disease (total score) ([3]; FIG. 2, significant vs solvent P<0.05, P<0.01): clearly improving the symptoms of Parkinson's disease

CC(=O)N1N=C(c2ccc(N)cc2)c2cc3c(cc2C[C@H]1C)OCO3 [LY-300164, Talampanel]
effect on dyskinesia (dyskinesia [4]; MPTP-treated monkeys with L-DOPA induced dyskinesia): the dyskinesia were improved | effect on the symptoms of Parkinson's disease (symptom scores) (dyskinesia [4]; experiment with the monkeys): not recognized as having an effect of clearly improving the symptoms of Parkinson's disease
